Tests used:
[1] = biological target: human CB2 receptor (hCB2) (Homo sapiens, UniProt P34972); assay: cAMP assay at human CB2 receptor; format: cell-based; settings: EC50 (Potency at Human CB2 determined by cAMP Assay), hCB2R; maximum measurable range 30 μM
Method in brief: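 Values expressed as percent of the window between forskolin-stimulated wells and forskolin plus 1 μM CP55,940 wells.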

[2] = system: Male ICR mice; assay: Inhibition of acetic acid-induced writhing in mice; format: in vivo, mouse; settings: dose of 10 mg/kg, subcutaneous 30 min before acetic acid
Source text: 12: 525-562; Ramabadran and Bansinath (1986) Pharm. Res. 3: 263-270]. Intraperitoneal administration of dilute acetic acid solution causes a writhing behavior in mice. A writhe is defined as a contraction of the abdominal muscles accompanied by an extension of the forelimbs and elongation of the body. The number of writhes observed in the presence and absence of test compounds is counted to determine the analgesic activity of the compounds.
Male ICR mice, 20-40 grams in weight, were weighed and placed in individual observation chambers (usually a 4 L beaker) with a fine layer of rodent bedding at the bottom. To determine the activity and potency of test compounds, different doses of the compound solution or vehicle were injected subcutaneously in the back of the neck 30 minutes prior to administration of acetic acid solution. After administration of the compound or vehicle control, mice were returned to their individual observation chambers awaiting the intraperitoneal administration of acetic acid solution.
Thirty minutes later, 10 ml/kg of a 0.6% (v/v) acetic acid solution was then injected into the right lower quadrant of the abdomen. Immediately after the injection, the mouse was returned to its observation chamber and the recording of the number of writhes is begun immediately. The number of writhes was counted over a 15-min period starting from the time of acetic acid injection. Raw data were analyzed using a one-way ANOVA followed by Dunnett's post-tests.
For dose-response analysis, raw data were converted to % maximum possible effect (% MPE) using the formula: % MPE=((Wc−Wv)/(0−Wv))*100, where Wc is the number of writhes in compound-treated mice and Wv is the mean number of writhes in vehicle-treated mice. The dose which elicited 50% attenuation of hypersensitivity (ED50) can be determined using linear regression analysis. (Tallarida & Murray, 1987).

[3] = biological target: human CB1 receptor (hCB1) (Homo sapiens, UniProt P21554); assay: cAMP assay at human CB1 receptor; format: cell-based; settings: hCB1R; maximum measurable range 30 μM; read-out: EC50 (Potency at Human CB1 determined by cAMP Assay)
Method in brief: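 Changes in intracellular cAMP measured by TR-FRET (665/615 nm) in forskolin-stimulated cells; cAMP read from a concurrent standard curve. Values normalised between forskolin and forskolin plus 1 μM CP55,940 wells. EC50 and intrinsic activity relative to CP55,940 from four-parameter nonlinear regression.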

[4] = system: male Sprague-Dawley rats; assay: Anti-hyperalgesia in the Complete Freund's Adjuvant (CFA) model of inflammatory pain; format: in vivo; settings: PO dose 3 mg/kg; 1 hr after dosing; thermal hyperalgesia; rat; read-out: % MPE (1 hr), paw withdrawal latency after CFA injection
Protocol: The anti-hyperalgesic effects of test compounds in the Complete Freund's Adjuvant (CFA) model of inflammatory pain were determined essentially as described in U.S. Pat. No. 7,517,874 using male Sprague-Dawley rats (Hsd: Sprague-Dawley®SD®, Harlan, Indianapolis, Ind.) weighing 200-300 grams.
Test compounds were prepared in a Cremaphor vehicle mixture of 1:1:18 CremophorEL:ethanol:water. Cremophor was obtained from Sigma Chemical (St. Louis, Mo.). The vehicle mixture or vehicle mixture plus test compound were each administered orally.
Assessment of thermal hyperalgesia: Baseline and post-treatment paw withdrawal latencies to a noxious thermal stimulus were measured using a plantar test apparatus (Ugo Basile; obtained from Stoelting, Wood Dale, Ill.). This apparatus generates an infrared heat source that is linearly increasing in intensity. To avoid tissue damage, the power to the heat source was cut off after 20 seconds.
Paw withdrawal latency is defined as the time required for the rat to flick its paw away from the thermal stimulus. Ibuprofen (100 mg/kg, p.o.) was used as the positive control. Paw withdrawal latencies (in seconds) were measured before (naïve paw latency, L1) and 24 hr following (CFA-inflamed paw latency, L2) a single intraplantar injection of 0.1 mL CFA (Sigma-Aldrich, cat F5881, Mycobacterium tuberculosis 1 mg/ml).
Test compounds were administered orally 23 hours following CFA injection; i.e., 1 hour prior to thermal assessment (compound treated CFA-inflamed paw latency, L3). The mean paw withdrawal latency and standard error of the mean (SEM) was determined for the injured paws for each treatment group.
Data were expressed as percent maximum […] effect (% MPE) defined as the percentage of restoration of latency of test compound-treated CFA inflamed paw as compared to the naïve paw latency.

[5] = system: Rat L5/L6 SNL model; assay: Spinal nerve ligation (SNL) model of chronic neuropathic pain; format: in vivo; settings: two-way repeated measurement ANOVA, Bonferroni post-tests
Protocol: The SNL model (Kim and Chung, 1992, Pain 50 (3):355-63) was used to induce chronic neuropathic pain in rats. Rats were anesthetized with isoflurane, the left L5 transverse process was removed, and the L5 and L6 spinal nerves were tightly ligated with 6-0 silk suture. The wound was then closed with internal sutures and external staples. Following at least seven days post SNL, baseline, post-injury and post-treatment values for non-noxious mechanical sensitivity were evaluated using eight Semmes-Weinstein filaments (Stoelting, Wood Dale, Ill., USA) with varying stiffness (0.4, 0.7, 1.2, 2.0, 3.6, 5.5, 8.5, and 15 g) according to the up-down method (Chaplan et al., 1994, J. Neurosci. Meth., 53 (1):55-63). Animals were placed on a perforated metallic platform and allowed to acclimate to their surroundings for a minimum of thirty minutes before testing.
Rat L5/L6 SNL model (n=6/group; mean±sem). Sensitivity to non-noxious mechanical stimuli was tested before and at various time points following oral administration of compound (36). The mean and standard error of the mean (SEM) were determined for the injured paw in each treatment group. Since this stimulus is normally not considered painful, significant injury-induced increases in responsiveness in this test are interpreted as a measure of mechanical allodynia.

Sequence of human CB1 receptor (hCB1) (P21554 whole entry): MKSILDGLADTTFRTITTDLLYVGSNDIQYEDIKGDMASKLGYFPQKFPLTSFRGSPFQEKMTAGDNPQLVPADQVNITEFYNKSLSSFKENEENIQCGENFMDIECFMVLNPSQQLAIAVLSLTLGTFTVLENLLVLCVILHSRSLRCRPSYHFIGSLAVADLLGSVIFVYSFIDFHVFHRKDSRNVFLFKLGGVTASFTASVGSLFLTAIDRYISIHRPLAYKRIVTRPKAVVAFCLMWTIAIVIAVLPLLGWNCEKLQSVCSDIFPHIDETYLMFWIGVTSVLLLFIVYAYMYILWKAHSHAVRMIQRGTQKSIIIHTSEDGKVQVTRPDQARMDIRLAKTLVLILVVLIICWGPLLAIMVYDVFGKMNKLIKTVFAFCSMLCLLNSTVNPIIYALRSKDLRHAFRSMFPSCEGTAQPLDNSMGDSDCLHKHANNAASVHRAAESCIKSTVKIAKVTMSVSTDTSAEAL
Sequence of human CB2 receptor (hCB2) (P34972 whole entry): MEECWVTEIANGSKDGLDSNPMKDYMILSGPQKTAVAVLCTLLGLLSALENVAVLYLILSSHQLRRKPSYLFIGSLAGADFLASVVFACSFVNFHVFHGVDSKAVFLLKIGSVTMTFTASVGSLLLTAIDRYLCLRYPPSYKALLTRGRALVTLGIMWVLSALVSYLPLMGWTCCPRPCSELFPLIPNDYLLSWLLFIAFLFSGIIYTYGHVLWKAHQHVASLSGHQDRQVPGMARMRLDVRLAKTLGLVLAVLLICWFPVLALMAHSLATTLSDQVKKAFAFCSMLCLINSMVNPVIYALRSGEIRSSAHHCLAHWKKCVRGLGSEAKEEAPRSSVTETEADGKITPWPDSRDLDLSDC

Structure (SMILES) | EC50 [1] [nM] | reversal of the mechanical hyperalgesia induced by the acetic acid treatment [2] [%] | EC50 [3] [nM] | inhibition in vivo at 3 mg/kg [4] [%] | Sensitivity to non-noxious mechanical stimuli, significance vs. vehicle-controls ([5]; 3 mg/kg oral) | Sensitivity to non-noxious mechanical stimuli, significance vs. vehicle-controls ([5]; 10 mg/kg oral) | Sensitivity to non-noxious mechanical stimuli, significance vs. vehicle-controls ([5]; 30 mg/kg oral)
CNC(=O)[C@@H](NC(=O)n1nc(-c2ccc(F)c(F)c2)c2c1CCOC2)C(C)(C)C [Compound 28, (S)-3-(3,4-difluorophenyl)-N-(3,3-dimethyl-1-(methyl-amino)-1-oxobutan-2-yl)-6,7-dihydropyrano[4,3-c]pyrazole-1(4H)-carboxamide] | < 1000 | 100 | < 1000 |  |  |  | 
CC(C)(C)[C@H](NC(=O)n1nc(-c2cc(F)c(F)cc2F)c2c1CCOC2)C(=O)NCCO [Compound 35, (S)—N-(1-(2-hydroxyethylamino)-3,3-dimethyl-1-oxobutan-2-yl)-3-(2,4,5-trifluorophenyl)-6,7-dihydropyrano[4,3-c]pyrazole-1(4H)-carboxamide] | < 1000 | 100 | < 1000 |  |  |  | 
CC(C)(C)[C@H](NC(=O)n1nc(-c2ccc(F)c(F)c2)c2c1CCOC2)C(=O)NCCO [Compound 36, (S)—N-(1-(2-hydroxyethylamino)-3,3-dimethyl-1-oxobutan-2-yl)-3-(3,4-difluorophenyl)-6,7-dihydropyrano[4,3-c]pyrazole-1(4H)-carboxamide] | < 1000 |  | < 1000 | 44 | significant to p<0.05 vs. vehicle-controls | significant to p<0.001 vs. vehicle-controls | significant to p<0.001 vs. vehicle-controls
CNC(=O)[C@@H](NC(=O)n1nc(-c2cc(F)c(F)cc2F)c2c1CCN(C)C2)C(C)(C)C [Compound 37, (S)—N-(3,3-dimethyl-1-(methylamino)-1-oxobutan-2-yl)-5-methyl-3-(2,4,5-trifluorophenyl)-4,5,6,7-tetrahydro-1H-pyrazolo[4,3-c]pyridine-1-carboxamide] | < 1000 | 100 | < 1000 |  |  |  | 

From patent US7741350B1 (Cara Therapeutics, Inc., priority 2009, dated 2010)
